Tests used:
TEAD2 = TEAD2 (Homo sapiens, UniProt Q15562); test: Inhibition of TEAD2 auto-palmitoylation in vitro; conditions: FIG. 1; 0.05 and 0.5 μM for 30 mins
NCI-H28 cells = test: Cell proliferation assay (MTT), NCI-H28; conditions: Homo sapiens, NCI-H28, read-out: IC50 NCI-H28 cell proliferation
PDL1 expression = PDL1 expression in cancer cell lines; type: cell-based
[1] = system: endogenous TEAD1-4 (pan-TEAD); test: Inhibition of endogenous pan-TEAD palmitoylation in HEK293A cells; type: cell-based
Procedure: HEK293A cells with or without TEAD overexpression were pretreated with DMSO or TM2 in medium with 10% dialyzed fetal bovine serum (DFBS) for 8 h and labeled by Alkynyl Palmitic acid (1165, Click Chemistry Tools) for another 16 h. The cells were then washed and harvested by cold DPBS (14190250, Life Technologies). The cell pellets were isolated by centrifugation (500×g, 10 min) and lysed by TEA lysis buffer (50 mM TEA-HCl, pH 7.4, 150 mM NaCl, 1% Triton X-100, 0.2% SDS, 1×Protease inhibitor-EDTA free cocktail (05892791001, Roche), phosphatase inhibitor cocktail (P0044, Sigma-Aldrich)) on ice for 30 mins. The protein concentration was determined using Bio-Rad assay and adjusted to 1 mg/mL. 100 μL of protein sample mixture was treated with 10 μL of freshly prepared “click” mixture containing 1 mM TBTA, 10 mM TCEP, 10 mM CuSO4, 1 mM TBTA Biotin-Azide and incubated for 1 h at room temperature. The proteins were precipitated by chloroform/methanol/H20 mixture and redissolved with 2% SDS in 0.1% PBST. The solution was diluted with 0.1% PBST and incubated with prewashed streptavidin agarose beads (69203-3, E M D MILLIPORE). After rotation at room temperature for 2 h, the beads were then pelleted by centrifugation (500×g, 3 min) and washed with 0.2% SDS in PBS (3×1 mL). The bound proteins were eluted with a buffer containing 10 mM EDTA pH 8.2 and 95% formamide and analyzed with SDS-PAGE. […]

[2] = target: association of YAP with endogenous TEAD1 and pan-TEAD (Homo sapiens, UniProt P28347); test: YAP co-immunoprecipitation (Co-IP) assay in H226 cells; type: cell-based; conditions: H226, 24 h, dose-dependent, FIG. 5A
Sequence of association of YAP with endogenous TEAD1 and pan-TEAD (P28347 whole entry): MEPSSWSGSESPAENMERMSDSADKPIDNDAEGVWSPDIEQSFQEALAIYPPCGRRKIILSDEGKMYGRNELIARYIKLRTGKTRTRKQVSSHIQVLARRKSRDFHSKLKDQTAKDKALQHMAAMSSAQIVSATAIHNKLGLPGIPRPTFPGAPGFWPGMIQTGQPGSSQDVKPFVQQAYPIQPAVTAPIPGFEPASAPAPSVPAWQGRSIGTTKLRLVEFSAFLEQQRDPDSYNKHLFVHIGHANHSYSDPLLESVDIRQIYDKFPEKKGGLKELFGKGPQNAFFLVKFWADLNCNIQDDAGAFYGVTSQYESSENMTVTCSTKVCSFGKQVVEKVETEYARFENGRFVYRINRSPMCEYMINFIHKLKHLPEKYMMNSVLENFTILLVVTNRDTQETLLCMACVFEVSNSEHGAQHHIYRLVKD
Procedure: H226 cells were treated with DMSO or TM2 for 24 h. The cells were then washed and harvested by cold DPBS. The cell pellets were isolated by centrifugation (500×g, 10 min) and lysed by lysis buffer (50 mM Tris-HCl pH 7.5, 10% Glycerol, 1% NP-40, 300 mM NaCl, 150 mM KCl, 5 mM EDTA, phosphatase inhibitor cocktail, complete EDTA-free protease inhibitors cocktail) on ice. After dilution with 50 mM Tris-HCl pH 7.5, 10% Glycerol, 1% NP-40, 5 mM EDTA, the protein samples were incubated with mouse anti-YAP antibody (sc-101199, Santa Cruz) overnight at 4° C. and immunoprecipitated with prewashed protein A/G beads (P5030-1, UBPBio) for another 4 h at 4° C. The bound proteins were washed with 0.1% PBST for three times and eluted with 1×SDS loading buffer and analyzed with SDS-PAGE. Anti-TEAD1 (1:1000, 12292S, Cell Signaling), anti-pan-TEAD (1:1000, 13295, Cell Signaling) or anti-YAP (1:1000, 140745, Cell Signaling) antibody were used to detect TEAD1, pan-TEAD or YAP, respectively. Secondary antibody was anti-rabbit (1:5000, 7074S, Cell Signaling).

[3] = Aqueous solubility (Aq Sol); type: physicochemical
Metabolic stability MLM = conditions: % parent remained per Table G2
[4] = system: Mouse hepatic progenitor organoids; test: Organoids viability; type: cell-based; conditions: 40 nM
Procedure: Mouse hepatic progenitor organoids (70932, […] Tech) were seeded in 96 well plate using 20 ul Matrigel (Corning, #354230) and cultured in HepatiCult™ Organoid Growth Medium (06031, […] Tech) with or without TM2. Medium was replaced after every 48 h with fresh compound. Organoid viability was measured by PrestoBlue™ HS Cell Viability Reagent (ThermoFisher, #P50200) following the manufacturer's protocol.

KNS62 = KNS62 growth inhibition (SAR tables); type: cell-based

Sequence of TEAD2 (Q15562 whole entry): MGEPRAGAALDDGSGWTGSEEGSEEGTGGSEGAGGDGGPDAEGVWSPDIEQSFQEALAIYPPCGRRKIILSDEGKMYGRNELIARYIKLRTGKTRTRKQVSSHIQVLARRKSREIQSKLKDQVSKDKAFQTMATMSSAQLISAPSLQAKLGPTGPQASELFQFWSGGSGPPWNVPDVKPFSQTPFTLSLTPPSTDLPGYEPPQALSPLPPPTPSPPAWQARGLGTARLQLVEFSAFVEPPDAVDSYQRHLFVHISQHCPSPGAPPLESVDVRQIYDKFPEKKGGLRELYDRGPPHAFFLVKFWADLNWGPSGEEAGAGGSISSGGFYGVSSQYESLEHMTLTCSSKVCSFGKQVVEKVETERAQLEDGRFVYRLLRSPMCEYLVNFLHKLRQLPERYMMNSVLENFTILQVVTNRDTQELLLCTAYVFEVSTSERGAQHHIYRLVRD

In the case of `O=C(Nc1ccccc1)N1CCN(C(=O)c2cccc(OCCC3CCCCC3)c2)CC1` [TM2, 4-(3-(2-cyclohexylethoxy)benzoyl)-N-phenylpiperazine-1-carboxamide], the “inhibition of TEAD2 auto-palmitoylation (in words)” value (TEAD2) is reported as “most potent compound”, the IC50 (NCI-H28 cells) is reported as over 5 µM and the “PDL1 expression in cancer cell lines (in words)” value (PDL1 expression) is reported as “inhibits PDL1 expression”. For the same compound, the “Pan-TEAD palmitoylation at 100 nM (in words)” value ([1]; 100 nM) was “diminished”, the “endogenous TEAD1-4 (pan-TEAD) palmitoylation (in words)” value ([1]; HEK293A, 24 h, FIG. 2D) was “significantly inhibits” and the “association of YAP with endogenous TEAD1 and pan-TEAD (in words)” value [2] was “dramatically blocked”. For the same compound, the “Aq Sol” value [3] was 2.3 µM, the Met stab MLM, 15 min (Metabolic stability MLM; 15 min) was 36% and the Met stab MLM, 60 min (Metabolic stability MLM; 60 min) was 4%. For the same compound, the “disruption of organoids growth” value [4] was “more than 85%”, the “KNS62: value at 1 μM” value (KNS62; 1 μM) was 37 and the “KNS62: value at 10 μM” value (KNS62; 10 μM) was 28.

Source: US20240279191A1, “SMALL MOLECULE INHIBITORS OF TEAD-YAP” (The General Hospital Corporation, priority 2021, published 2024)
